Results as given in patent US12667557B2, “Method for treating EGFR-TKI-resistant non-small cell lung cancer by administration of anti-HER3 antibody-drug conjugate” (priority 2017, dated 2026).

Tests used:
cell strain HCC827GR5 [1] = test: Cell proliferation suppressing activity (CellTiter Glo) against cell strain HCC827GR5; type: cell-based, human; settings: 7th day of treatment
Description: Cell strain HCC827GR5 was cultured in a medium obtained by adding gefitinib at a final concentration of 1 μM into the aforementioned medium.
Cell strain HCC827GR5 was cultured in a medium obtained by adding gefitinib at a final concentration of 1 μM into RPMI1640 medium (manufactured by Sigma-Aldrich Corp.) containing R10 medium (10% fetal bovine serum and 1% penicillin-streptomycin B (manufactured by Wako Pure Chemical Industries, Ltd.)). After cell strain HCC827GR5 was cultured, the cells were detached by trypsin treatment and then collected. The number of cells in the cell suspension was measured, and the cells were suspended in RPMI1640 medium containing 10% fetal bovine serum. The suspension was adjusted to have a concentration of 100,000 cells/mL. 50 μL of each cell suspension was added to each well of SUMILON 96-well plate (manufactured by Sumitomo Bakelite Co., Ltd.) (5,000 cells/well), and culture was carried out. […] On the 7th day from the initiation of treatment, 50 μL of CellTiter Glo (manufactured by Promega Corp.) was added to each well and then the culture system was stirred for 2 minutes with a plate mixer. The plate was left to stand for 30 minutes under light-shielded conditions. An aliquot of 120 μL was taken from each well and was transferred onto a black microplate, and the luminescence values were measured with a luminometer.

[2] = tested on: cell strain HCC827GR5 transplanted in nude mice; test: Antitumor effect on cell strain HCC827GR5 transplanted in nude mice; type: in vivo, nude mice (BALB/cAJcl-nu/nu); settings: for Estimated tumor volume Average value: HER3-ADC (1) 10 mg/kg i.p. once a week, erlotinib 25 mg/kg oral six times a week; for Tumor growth inhibition ratio (%): compared with the control group, HER3-ADC (1) 10 mg/kg i.p., erlotinib 25 mg/kg oral
Description: Cell strain HCC827GR5 was cultured in RPMI1640 medium (manufactured by Sigma-Aldrich Corp.) containing R10 medium (10% fetal bovine serum and 1% penicillin-streptomycin B (manufactured by Wako Pure Chemical Industries, Ltd.)) and erlotinib at a final concentration of 1 μM, subsequently the cells were detached by trypsin treatment and then collected. The number of cells in the cell suspension was measured, and the cells were suspended in R10 medium. The suspension was adjusted to have a concentration of 75,000,000 cells/mL. 100 μL of the cell suspension thus prepared (7,500,000 cells) was transplanted subcutaneously into the ventral region of 6-week old female nude mice (BALB/cAJcl-nu/nu), and then after 7 days from tumor transplantation, at which the average value of the estimated […] tumor volume of the transplanted tumors became […], grouping was carried out. Then, drug administration was initiated (day 0). HER3-ADC (1) was dissolved in phosphate buffer saline (PBS), and the solution was adjusted to have a concentration of 1 mg/mL. Erlotinib was dissolved in a hydroxypropylmethyl cellulose (HPMC) solution, and the solution was adjusted to have a concentration of 2.75 mg/mL. To the single-agent treatment groups of each drug, from day 0 to day 49 at the maximum, prepared HER3-ADC (1) was administered intraperitoneally once a week (7 times in total) at a dose of 200 μL/mouse (10 mg/kg), and prepared erlotinib was administered orally six times a week (19 in total) at a dose of 0.18 mL/mouse (25 mg/kg). On the other hand, to the combination treatment group, HER3-ADC (1) and erlotinib were administered from day 0 at the same dose in the same schedule as those of the single-agent treatment groups. A control group, which was not subjected to administration, was also established. For all of the groups, ten mice were used per group. After the initiation of administration, the tumor diameters (major axis and minor axis) were measured twice a week (on days 0, 3, 7, 10, 14, 17, 21, 24, 28, 31, 35, 38, 41, 45, and 49), and the estimated tumor volumes in each group were calculated according to the following formula. Subsequently, the average value of the estimated tumor volume for each group was calculated. Estimated tumor volume (Volume, mm^3)=major axis (mm)×minor axis (mm)^2÷2
Furthermore, the tumor growth inhibition ratio of each group compared with the control group was calculated according to the following formula. Tumor growth inhibition ratio (%)=100−(average value of estimated tumor volume of treatment group÷average value of estimated tumor volume of control group×100)
From the viewpoint of animal ethics, the measurement for the control and erlotinib single-agent treatment groups was terminated at the 21st day since the estimated tumor volume reached 1,200 to 1,500 mm^3. Along with this, the calculation of the tumor growth inhibition ratio (%) was made up to day 21.

cell strain HCC827GR5 [3] = settings: reported in K. Yonesaka et al., Oncogene (2016) 35, 878-886; cited from earlier work
cell strain PC9 = test: Cell proliferation suppressing activity of osimertinib against cell strain PC9; type: cell-based, human; settings: 0.01 μM or higher concentrations of osimertinib; 3rd day of treatment
Description: (§1) Cell strains PC9 and PC9AZDR7 were cultured in RPMI1640 medium (manufactured by Sigma-Aldrich Corp.) containing 10% fetal bovine serum and 1% penicillin-streptomycin B (manufactured by Wako Pure Chemical Industries, Ltd.). PC9AZDR7 was cultured with 100 nM osimertinib added to the medium. After cell strains PC9 and PC9AZDR7 were cultured, the cells were detached by trypsin treatment and then collected. […] Subsequently, 50 μL of each cell suspension was added into each well of SUMILON 96-well plate (manufactured by Sumitomo Bakelite Co., Ltd.) (10,000 cells/well), and culture was carried out. One day after the initiation of culture, osimertinib dilutions, each of which was prepared to have one of various concentrations, or as a negative control, RPMI-1640 medium not containing any drug was added, and culture was carried out. […] The plate was left to stand for 30 minutes under light-shielded conditions. […] The cell proliferation suppressing activity (% of control) of each drug was calculated using the following formula. % of Control=(Average luminescence value in specimen-added wells÷average luminescence value in negative control wells)×100

cell strain PC9AZDR7 = test: Cell proliferation suppressing activity of osimertinib against cell strain PC9AZDR7; type: cell-based, human; settings: 1 μM or lower concentrations of osimertinib; 3rd day of treatment
Description: as §1

[4] = tested on: cell strain PC9AZDR7 transplanted in nude mice; test: Antitumor effect of combination of HER3-ADC (1) and osimertinib on cell strain PC9AZDR7 transplanted in nude mice; type: in vivo, nude mice (BALB/cAJcl-nu/nu); settings: for Estimated tumor volume Average value: HER3-ADC (1) 1 mg/kg i.p. on Day 1, osimertinib 1 mg/kg oral Days 1-5, 8-12, 15-19; for Tumor growth inhibition ratio (%): compared with the control group, HER3-ADC (1) 1 mg/kg i.p., osimertinib 1 mg/kg oral
Description: Cell strain PC9AZDR7 was cultured in RPMI1640 medium (manufactured by Sigma-Aldrich Corp.) containing 10% fetal bovine serum and 1% penicillin-streptomycin B (manufactured by Wako Pure Chemical Industries, Ltd.) and 100 nM osimertinib. After cell strain PC9AZDR7 was cultured, the cells were detached by trypsin treatment and then collected. […] From the next day of grouping (1st day), drug administration was initiated. […] As a control group, a group not receiving any administration was established. […] After the initiation of administration, the tumor diameters (major axis and minor axis) were measured twice a week, and the estimated tumor volume in each group was calculated according to the following formula. Subsequently, the average value of the estimated tumor volume for each group was calculated. […] The tumor growth inhibition ratio of each group compared with the control group was calculated using the following formula.

topoisomerase I = molecular target: T1, topoisomerase I (Homo sapiens, UniProt P11387); settings: Ogitani Y. et al., Clinical Cancer Research, 2016; 22(20):5097-5108; cited from earlier work
T1 sequence (P11387 1-765): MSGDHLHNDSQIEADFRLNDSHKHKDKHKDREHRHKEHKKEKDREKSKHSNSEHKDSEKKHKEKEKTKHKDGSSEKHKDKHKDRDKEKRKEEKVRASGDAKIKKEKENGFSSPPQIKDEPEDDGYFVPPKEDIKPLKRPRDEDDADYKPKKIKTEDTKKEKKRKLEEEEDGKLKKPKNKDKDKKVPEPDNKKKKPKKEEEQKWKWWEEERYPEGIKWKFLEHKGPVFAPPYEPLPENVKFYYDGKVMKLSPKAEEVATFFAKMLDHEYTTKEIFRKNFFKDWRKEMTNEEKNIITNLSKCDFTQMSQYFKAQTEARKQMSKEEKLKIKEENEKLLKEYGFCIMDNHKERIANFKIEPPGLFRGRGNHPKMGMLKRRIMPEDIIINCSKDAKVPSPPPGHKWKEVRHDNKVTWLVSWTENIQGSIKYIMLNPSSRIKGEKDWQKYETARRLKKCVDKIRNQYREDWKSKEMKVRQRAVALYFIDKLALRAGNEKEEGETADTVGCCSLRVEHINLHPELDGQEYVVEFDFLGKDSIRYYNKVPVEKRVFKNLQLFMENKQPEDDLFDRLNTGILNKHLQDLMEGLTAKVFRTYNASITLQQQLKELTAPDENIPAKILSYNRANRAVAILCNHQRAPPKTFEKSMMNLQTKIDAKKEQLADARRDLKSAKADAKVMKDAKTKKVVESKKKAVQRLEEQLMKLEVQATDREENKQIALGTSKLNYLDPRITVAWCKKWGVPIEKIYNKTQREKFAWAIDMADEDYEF

For C#Cc1cccc(Nc2ncnc3cc(OCCOC)c(OCCOC)cc23)c1 [Erlotinib, erlotinib], the “cell proliferation suppressing activity (% Control)” value (cell strain HCC827GR5 [1]; 1 μg/mL of erlotinib (so in the source)) was 69.2%, the “cell proliferation suppressing activity (% Control)” value (cell strain HCC827GR5 [1]; 3.3 μg/mL of erlotinib (so in the source)) was 52.6% and the “cell proliferation suppressing activity (% Control)” value (cell strain HCC827GR5 [1]; 10 μg/mL of erlotinib (so in the source)) was 31.7%. For the same molecule, the “Estimated tumor volume Average value” ([2]; Day 0) was 124.5 mm^3, the “Tumor growth inhibition ratio (%)” value ([2]; Day 0) was 2.7% and the “Estimated tumor volume Average value” ([2]; Day 3) was 189.7 mm^3. For the same molecule, the “Tumor growth inhibition ratio (%)” value ([2]; Day 3) was 22.0%, the “Estimated tumor volume Average value” ([2]; Day 7) was 347.5 mm^3 and the “Tumor growth inhibition ratio (%)” value ([2]; Day 7) was 26.0%. The “Estimated tumor volume Average value” ([2]; Day 10) was 420.0 mm^3, the “Tumor growth inhibition ratio (%)” value ([2]; Day 10) was 29.1% and the “Estimated tumor volume Average value” ([2]; Day 14) was 747.8 mm^3. For the same molecule, the “Tumor growth inhibition ratio (%)” value ([2]; Day 14) was 14.5%, the “Estimated tumor volume Average value” ([2]; Day 17) was 1117.9 mm^3 and the “Tumor growth inhibition ratio (%)” value ([2]; Day 17) was 20.4%. For the same molecule, the “Estimated tumor volume Average value” ([2]; Day 21) was 1225.5 mm^3, the “Tumor growth inhibition ratio (%)” value ([2]; Day 21) was 21.1% and the “antitumor effect / efficacy (in words)” value ([2]; on Day 21, Dunnet's Multiple Comparison test p<0.001 for the significant effects) was “did not exhibit efficacy”. For the same molecule, the “sensitivity to alone therapy” value (cell strain HCC827GR5 [3]) was “not to exhibit strong sensitivity”.

In the case of C=CC(=O)Nc1cc(Nc2nccc(-c3cn(C)c4ccccc34)n2)c(OC)cc1N(C)CCN(C)C [Osimertinib, osimertinib], the “cell proliferation suppressing activity” value (cell strain PC9) is reported as “Strong cell proliferation suppressing activities”, the “cell proliferation suppressing activity” value (cell strain PC9AZDR7) is reported as “no cell proliferation suppressing activity was observed” and the “Estimated tumor volume Average value” ([4]; Day 0) is reported as 64.2 mm^3. For the same molecule, the “Tumor growth inhibition ratio (%)” value ([4]; Day 0) was 5.3%, the “Estimated tumor volume Average value” ([4]; Day 5) was 249.3 mm^3 and the “Tumor growth inhibition ratio (%)” value ([4]; Day 5) was 6.0%. The “Estimated tumor volume Average value” ([4]; Day 8) was 271.7 mm^3, the “Tumor growth inhibition ratio (%)” value ([4]; Day 8) was 5.8% and the “Estimated tumor volume Average value” ([4]; Day 11) was 357.2 mm^3. The “Tumor growth inhibition ratio (%)” value ([4]; Day 11) was 17.9%, the “Estimated tumor volume Average value” ([4]; Day 16) was 533.4 mm^3 and the “Tumor growth inhibition ratio (%)” value ([4]; Day 16) was 6.7%. For the same molecule, the “Estimated tumor volume Average value” ([4]; Day 18) was 650.7 mm^3, the “Tumor growth inhibition ratio (%)” value ([4]; Day 18) was 9.8% and the “Estimated tumor volume Average value” ([4]; Day 21) was 710.6 mm^3. The “Tumor growth inhibition ratio (%)” value ([4]; Day 21) was 27.7%.

In the case of CC[C@@]1(O)C(=O)OCc2c1cc1n(c2=O)Cc2c-1nc1cc(F)c(C)c3c1c2[C@@H](NC(=O)CO)CC3, the “topoisomerase I inhibitory activity” value (topoisomerase I) is given as “confirmed to have a topoisomerase I inhibitory activity”.
